Assays:
[1] = H2S evolution vs. pH in simulated flotation process (headspace analysis); assay type: physicochemical; details: pH adjusted to between 9 and 9.5, ambient temperature
Protocol: The H2S evolution due to the decomposition of depressant reagents during storage, handling and application presents the highest associated hazard with regards to health and safety (HSE). Testing of TKI's Alkaline Polysulfide products against the standard (NaHS reagent) was conducted in a simulated flotation process using lab apparatus to determine the amount of H2S evolved at various pH's. The tests were conducted using the following testing protocol; • All tests were ran at ambient temperatures using tap water. Add 500 ml of tap water to […] glass apparatus, check pH and temp, start and maintain stirring throughout test. • Add Ca(OH)2 to raise pH to approximately 10.5 • Add 5 mL of reagent. • Allow to stabilize for 2 min, with cracking of stopper to equilibrate at 1 min. • Check pH, temperature and H2S in VP using analyzer. • Add H2SO4 to decrease pH to ˜9. • Allow to stabilize for 2 min, with cracking of stopper to equilibrate at 1 min. • Check pH, temperature and H2S in VP using analyzer. • Repeat last three Steps for pH 9, 8 and 7 if applicable.
Note the H2S in the vapor phase above the polysulfide samples increased to 1500 ppm at pH near 8.2, while this 1500 ppm level was reached by NaHS samples at pH 9.1 to 9.3. […] This would translate into a less hazardous environment in applications where the process is run ran at lower pH's (˜9) utilizing for example CO2 as a flotation medium or modifying agent.
Values above 1500 ppm are lower limits, as the H2S meter maximum reading was 2000 PPM. […] Therefore, this invention may show significant health and safety benefits even at pH near 8.

mammals = details: cited from earlier work

Compound	H2S in vapor phase [1]	LD50 (mammals)
S [NaHS, Sodium hydrosulfide, reference compound]	1500 ppm	–
Calcium Polysulfide [CaPS]	remained low	about 0.8 grams per kilogram of body weight
Potassium Polysulfide [KPS]	presumably KPS remained low	–
Sodium Polysulfide [NaPS]	remained low	–

Reference: patent US10717090B2, “Depression of copper and iron sulfides in molybdenite flotation circuits” (TESSENDERLO KERLEY, INC., priority 2014, dated 2020)
